Experimental data published in patent US20080031866A1, “METHOD FOR MODULATING THE PHARMACOKINETICS AND METABOLISM OF A THERAPEUTIC AGENT” (priority 2006, published 2008).

Assays:
[1] = IV pharmacokinetics of Compound 1 and its glucuronides in rats; assay type: in vivo, rat; conditions: Sprague Dawley, rat, plasma, Compound 1 2 mg/kg IV
Experimental: (§1) Two separate IV studies were carried out using two separate lots of animals. IV-A was run on the same lot of animals as the oral gavage study and IV-B was run on the same lot of animals as the intraduodenal and intra-colonic studies.
For the IV dosing solutions (IV), Compound 1 was prepared by addition to DI water containing 20% hydroxypropyl β-cyclodextran by weight.
(§2) For the IV and oral gavage dosing (sampling at jugular and portal vein), young adult male Sprague Dawley rats weighing 250-400 g were purchased from Hilltop Lab Animals Inc. All rat experiments were conducted under approved animal protocols. The rats for the oral gavage dosing were catheterized at Hilltop Lab Animals Inc, had two chronic catheters for sampling: jugular and portal, were housed in cages of Culex™ Automated Blood Sampler (ABS) and blood samples were collected simultaneously via both cannula and were controlled by the Culex™ ABS control software.
(§3) A quantitative method for determining the amount of (6,7-dimethoxy-2,4-dihydro-indeno[1,2-c]pyrazol-3-yl)-(3-fluoro-phenyl)-amine Compound 1 and its major metabolites, glucuronide A (Cpd 1-GluA) and glucuronide B (Cpd 1-GluB) (see Scheme A) in rat plasma was developed using phenacetin as an internal standard. [drawing 1]
(§4) The two glucuronide conjugates were prepared and purified to permit accurate quantification of the levels of intact parent Compound 1 versus Cpd 1-GluA and Cpd 1-GluB. Each standard curve for Compound 1, Cpd 1-GluA, and Cpd 1-GluB generated from rat plasma included ten concentration levels. […] The quantitative procedure for each sample included: sample preparation, HPLC separation and mass spectrometry detection.
(§5) The rat plasma was prepared using protein precipitation techniques. Reference standards and quality control samples in rat plasma for Compound 1 were transferred to a 96 deep-well plate. The precipitation solution contained 100 ng/ml of internal standard in acetonitrile. 300 μl of precipitation solution were added to 100 μl of each standard, quality control and plasma sample. Samples were vortexed for 10 mins, then centrifuged at 4500 RPM for 10 mins. 10 μl of each sample were injected for LC/MS/MS analysis.
(§6) The HPLC column chosen for the bioanalysis was purchased from Thermo Electron (Hypersil BetaBasic C18, 5 cm×2.1 mm). The eluting solvents were composed of Solvent A: 0.1% formic acid in H2O and Solvent B: 0.1% formic acid in acetonitrile. A step gradient was used and flow rate was 300 μl/min. The total run time was 3.2 mins. Solvent B was increased from 35% at 0 min to 75% at 2.1 mins and decreased back to 35% at 2.2 mins. The retention times for Compound 1, phenacetin, Cpd 1-GluA and Cpd 1-GluB were 1.1 min, 0.9 min, 1.3 min, and 1.6 min, respectively.
(§7) API3000 with a Turbo Ionspray interface from Applied Biosystems was used for the detection of Compound 1, the internal standard and major metabolites. Electrospray ionization was performed in the positive ion mode heated nebulizer with a temperature of 300° C. LC/MS/MS chromatograms were acquired in MRM (multiple reaction mode). The MRM transitions for Compound 1, the internal standard, Cpd 1-GluA and Cpd 1-GluB were from 326.3 to 190.6, 181.1 to 110.3, 502.2 to 368.3 and 502.2 to 326.4, respectively.
Pharmacokinetic analysis of the plasma concentration data was performed to determine the maximum plasma concentration (Cmax) for the oral dose, and the concentration at zero time (C0; Compound 1 only) by the extrapolation of drug concentrations back to the time of i.v. dosing, the time to maximum plasma concentration (Tmax) following the oral dose, area under the plasma concentration vs. time curve (AUC), terminal half-life (t1/2), plasma clearance (CL/F; Compound 1 only), and volume of distribution at steady state (Vdss; Compound 1 only) for the i.v. dose, using the WinNonlin (Version 3.1, Pharsight, Palo Alto, Calif.) validated computer program.

[2] = Oral gavage pharmacokinetics, jugular and portal vein sampling, first pass metabolism; assay type: in vivo, rat; conditions: for AUC: po, 75 mg/kg; for AUC / concentration at 0 h / concentration at 0.08 h / concentration at 0.25 h / concentration at 0.33 h / concentration at 0.5 h / concentration at 0.67 h / concentration at 1 h / concentration at 1.25 h / concentration at 1.5 h / concentration at 2 h / concentration at 3 h / concentration at 4 h / concentration at 6 h / concentration at 12 h / concentration at 24 h / Cmax: rats N=4; for Cmax: read-out: Cmax average ± standard deviation
Experimental: as §1
For the oral gavage dosing, Compound 1 was prepared in neat PEG-400. For the intraduodenal and intracolonic dosing solutions, Compound 1 was added to neat Tween 80, the mixture was sonicated for thirty minutes at 45° C. until Compound 1 was completely dissolved and then deionized (DI) water was added to form a solution consisting of 20% Tween 80 and 80% DI water by weight.
as §2, §3, §4, §5, §6
as §7, with “respectively. […]” for “respectively.”

[3] = male, Sprague Dawley, rat, plasma (jugular vein sample), Compound 1 75 mg/kg oral gavage, jugular sample
[4] = male, Sprague Dawley, rat, plasma (portal vein sample), Compound 1 75 mg/kg oral gavage, portal sample
[5] = male, Sprague Dawley, rat, portal vein plasma, Compound 1 75 mg/kg oral gavage, portal sample

COc1cc2c(cc1OC)-c1nn(C3OC(C(=O)O)C(O)C(O)C3O)c(Nc3cccc(F)c3)c1C2 (stereo in doubt) [Cpd 1-GluB]
AUC ([1]; male rats N=4, read-out: AUC average ± standard deviation): 103 ± 47 ng·h/mL
Cmax ([1]; male rats N=4, read-out: Cmax average ± standard deviation): 28 ± 3 ng/mL
concentration at 0 h ([1]; male rats N=4, retro orbital sinus, 0 hrs): 0 ng/mL
concentration at 0.08 h ([1]; male rats N=4, retro orbital sinus, 0.08 hrs): 21.2 ng/mL
concentration at 0.33 h ([1]; male rats N=4, retro orbital sinus, 0.33 hrs): 28.4 ng/mL
concentration at 1 h ([1]; male rats N=4, retro orbital sinus, 1 hr): 17.8 ng/mL
concentration at 2 h ([1]; male rats N=4, retro orbital sinus, 2 hrs): 5.5 ng/mL
concentration at 4 h ([1]; male rats N=4, retro orbital sinus, 4 hrs): 0 ng/mL
concentration at 8 h ([1]; male rats N=4, retro orbital sinus, 8 hrs): 0 ng/mL
concentration at 24 h ([1]; male rats N=4, retro orbital sinus, 24 hrs): 0 ng/mL
Tmax ([1]; male rats): 18 min
Ratio of metabolite to Compound 1 ([2]; jugular vein, oral gavage): 1
AUC ([2]; male, Sprague Dawley, rat, plasma (jugular vein sample), Compound 1 75 mg/kg oral gavage, jugular sample, read-out: AUC average ± standard deviation 0 to 24 hours): 1710 ng·h/mL
AUC ([2]; male, Sprague Dawley, rat, plasma (jugular vein sample), Compound 1 75 mg/kg oral gavage, jugular sample, read-out: AUC average ± standard deviation 0 to infinite hours): 2180 ng·h/mL
concentration at 0 h [2, 3]: 0 ng/mL
concentration at 0.08 h [2, 3]: 37.8 ng/mL
concentration at 0.25 h [2, 3]: 169 ng/mL
concentration at 0.33 h [2, 3]: 233 ng/mL
concentration at 0.5 h [2, 3]: 223 ng/mL
concentration at 0.67 h [2, 3]: 244 ng/mL
concentration at 1 h [2, 3]: 230 ng/mL
concentration at 1.25 h [2, 3]: 178 ng/mL
concentration at 1.5 h [2, 3]: 169 ng/mL
concentration at 2 h [2, 3]: 141 ng/mL
concentration at 3 h [2, 3]: 90 ng/mL
concentration at 4 h [2, 3]: 51.4 ng/mL
concentration at 6 h [2, 3]: 71.3 ng/mL
concentration at 12 h [2, 3]: 86.5 ng/mL
concentration at 24 h [2, 3]: 29 ng/mL
Cmax [2, 3]: 268 ± 52 ng/mL
concentration at 0.67 h [2, 4]: 290 ng/mL
concentration at 1 h [2, 4]: 164 ng/mL
concentration at 1.25 h [2, 4]: 183 ng/mL
concentration at 1.5 h [2, 4]: 151 ng/mL
concentration at 2 h [2, 4]: 142 ng/mL
concentration at 3 h [2, 4]: 105 ng/mL
concentration at 4 h [2, 4]: 79.5 ng/mL
concentration at 6 h [2, 4]: 120 ng/mL
concentration at 12 h [2, 4]: 87.2 ng/mL
Tmax ([2]; male, Sprague Dawley, rat, plasma, rats, Compound 1 75 mg/kg oral gavage): 30 min
AUC ([2]; male, Sprague Dawley, rat, portal vein plasma, Compound 1 75 mg/kg oral gavage, portal sample, read-out: AUC average ± standard deviation 0 to 24 hours): 1960 ng·h/mL
AUC ([2]; male, Sprague Dawley, rat, portal vein plasma, Compound 1 75 mg/kg oral gavage, portal sample, read-out: AUC average ± standard deviation 0 to infinite hours): 2490 ng·h/mL
concentration at 0 h [2, 5]: 0 ng/mL
concentration at 0.08 h [2, 5]: 82.8 ng/mL
concentration at 0.25 h [2, 5]: 215 ng/mL
concentration at 0.33 h [2, 5]: 263 ng/mL
concentration at 0.5 h [2, 5]: 192 ng/mL
concentration at 24 h [2, 5]: 39.9 ng/mL
Cmax [2, 5]: 324 ± 129 ng/mL
Mean ratio of metabolite to Compound 1 ([2]; portal system, oral gavage): 0.2
